In the supplement of paper PMC10949913:

Experiments:
Test in all cases: area under concentration-response curve (viability) (AUC (a.u.)); higher = less active
Conditions in all cases: 48 h
CU-ACC1 = tested on: CU-ACC1
In short: (§1)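 After 48 h of treatment with 23 nL of each library compound at 11 concentrations, three adrenocortical carcinoma cell lines in 1,536-well plates (500–1,000 cells/well, 5 µL medium) were given CellTiter-Glo for 15 minutes at room temperature. Luminescence was then read and normalised per plate to vehicle and empty-well controls. AC50 and area under the curve were drawn from fitted concentration-response curves of inhibitory or non-responding classes only.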

CU-ACC2 = tested on: CU-ACC2
In short: as §1

NCI-H295R = tested on: NCI-H295R
In short: as §1

## C#C[C@]1(O)CC[C@H]2[C@@H]3CCc4cc(O)ccc4[C@H]3CC[C@@]21C
CU-ACC1
  area under concentration-response curve: 525
CU-ACC2
  area under concentration-response curve: 611
NCI-H295R
  area under concentration-response curve: 538

## CCCCNc1ncc(-c2ccc(CN3CCOCC3)cn2)c(N[C@H]2CC[C@H](O)CC2)n1
CU-ACC1
  area under concentration-response curve: 612
CU-ACC2
  area under concentration-response curve: 721
NCI-H295R
  area under concentration-response curve: 623

## CCC1(c2ccc(N)cc2)CCC(=O)NC1=O (centres undefined)
CU-ACC1
  area under concentration-response curve: 591
CU-ACC2
  area under concentration-response curve: 631
NCI-H295R
  area under concentration-response curve: 568

## O=C(Nc1ccccc1)Nc1ccc(-c2ccc(C(=O)[C@@H]3CCC[C@H]3C(=O)O)cc2)cc1
CU-ACC1
  area under concentration-response curve: 481
CU-ACC2
  area under concentration-response curve: 472
NCI-H295R
  area under concentration-response curve: 441

## COC[C@@H](c1ccc(C(F)(F)F)cc1)N1CCN(C2(C)CCN(C(=O)c3c(C)ncnc3C)CC2)C[C@@H]1C
CU-ACC1
  area under concentration-response curve: 501
CU-ACC2
  area under concentration-response curve: 541
NCI-H295R
  area under concentration-response curve: 513

## Oc1cc2c(cc1O)C1c3ccc(O)c(O)c3OCC1(O)C2 (centres undefined)
CU-ACC1
  area under concentration-response curve: 546
CU-ACC2
  area under concentration-response curve: 542
NCI-H295R
  area under concentration-response curve: 527

## CN(C)CCc1c[nH]c2ccc(C[S+](=O)([O-])N3CCCC3)cc12
CU-ACC1
  area under concentration-response curve: 490
CU-ACC2
  area under concentration-response curve: 612
NCI-H295R
  area under concentration-response curve: 513

## CCN(C(=O)C/1=C(O)/C2=C(C=CC=C2Cl)N(C)C1=O)C3=CC=CC=C3
CU-ACC1
  area under concentration-response curve: 489
CU-ACC2
  area under concentration-response curve: 566
NCI-H295R
  area under concentration-response curve: 555

## OC1CCC(Nc2ncc3nc(Nc4c(F)cc(F)cc4F)n([C@@H]4CCOC4)c3n2)CC1 (some centres undefined)
CU-ACC1
  area under concentration-response curve: 464
CU-ACC2
  area under concentration-response curve: 531
NCI-H295R
  area under concentration-response curve: 446

## CO[C@H]1CC[C@H](N(c2cc(C3=CCCCC3)sc2C(=O)[O-])C(=O)[C@H]2CC[C@H](C)CC2)CC1
CU-ACC1
  area under concentration-response curve: 514
CU-ACC2
  area under concentration-response curve: 613
NCI-H295R
  area under concentration-response curve: 573

## Cn1cc(-c2ccc(-c3cncc(Cl)c3N3CCC4(CCNC4=O)CC3)cc2)cn1
CU-ACC1
  area under concentration-response curve: 521
CU-ACC2
  area under concentration-response curve: 622
NCI-H295R
  area under concentration-response curve: 514

## CCCCOC(=O)N[S+](=O)([O-])c1sc(CC(C)C)cc1-c1ccc(Cn2ccnc2)cc1
CU-ACC1
  area under concentration-response curve: 357
CU-ACC2
  area under concentration-response curve: 412
NCI-H295R
  area under concentration-response curve: 460

## Cc1cc(C)cc(Oc2ccc(CNC(=O)[C@H](C)N)cc2C)c1
CU-ACC1
  area under concentration-response curve: 478
CU-ACC2
  area under concentration-response curve: 559
NCI-H295R
  area under concentration-response curve: 509

## COCC1(CO)C(=O)C2CCN1CC2 (centres undefined)
CU-ACC1
  area under concentration-response curve: 443
CU-ACC2
  area under concentration-response curve: 513
NCI-H295R
  area under concentration-response curve: 468

## C[C@@H]1CN[C@H]2[C@@H](C)[C@@]\3(CC[C@H]\4[C@@H]5C/C=C6/C[C@@H](O)CC[C@]6(C)[C@H]5CC4=C3C)O[C@@H]2C1
CU-ACC1
  area under concentration-response curve: 463
CU-ACC2
  area under concentration-response curve: 433
NCI-H295R
  area under concentration-response curve: 511

## C[C@]\12CCC(=O)\C=C1[C@@H]3C[C@@H]3[C@@H]4[C@@H]2CC[C@@]5(C)[C@H]4[C@@H]6C[C@@H]6[C@@]57CCC(=O)O7
CU-ACC1
  area under concentration-response curve: 509
CU-ACC2
  area under concentration-response curve: 602
NCI-H295R
  area under concentration-response curve: 549

## CC(C)N(CCCNC(=O)Nc1ccc(C(C)(C)C)cc1)C[C@H]1O[C@@H](n2ccc3c(N)ncnc32)[C@H](O)[C@@H]1O
CU-ACC1
  area under concentration-response curve: 537
CU-ACC2
  area under concentration-response curve: 656
NCI-H295R
  area under concentration-response curve: 578

## Oc1ccc(OCc2ccccc2)cc1
CU-ACC1
  area under concentration-response curve: 378
CU-ACC2
  area under concentration-response curve: 353
NCI-H295R
  area under concentration-response curve: 417

## CCn1c(=O)c2c(nc(/C=C/c3ccc(OC)c(OC)c3)n2C)n(CC)c1=O
CU-ACC1
  area under concentration-response curve: 431
CU-ACC2
  area under concentration-response curve: 434
NCI-H295R
  area under concentration-response curve: 431

## Cc1noc2c1-c1ccccc1C(c1ccc(Cl)cc1)=N[C@H]2CC(N)=O
CU-ACC1
  area under concentration-response curve: 495
CU-ACC2
  area under concentration-response curve: 568
NCI-H295R
  area under concentration-response curve: 466

## C[C@H](Cc1ccc(O)c(O)c1)[C@@H](C)Cc1ccc(O)c(O)c1
CU-ACC1
  area under concentration-response curve: 496
CU-ACC2
  area under concentration-response curve: 565
NCI-H295R
  area under concentration-response curve: 532

## O[C@H](C[C@H]1c2c(F)cccc2-c2cncn21)[C@H]1CC[C@H](O)CC1
CU-ACC1
  area under concentration-response curve: 553
CU-ACC2
  area under concentration-response curve: 616
NCI-H295R
  area under concentration-response curve: 536

## O=C(Nc1nccs1)C(c1cc(F)ccc1O)N1Cc2ccccc2C1=O (centres undefined)
CU-ACC1
  area under concentration-response curve: 504
CU-ACC2
  area under concentration-response curve: 557
NCI-H295R
  area under concentration-response curve: 524
